# Columns and labels:
# [1] = molecular target: Dual specificity tyrosine-phosphorylation-regulated kinase 1A (Homo sapiens, UniProt Q13627); assay: Inhibition of DYRK1A (unknown origin)
# [2] = molecular target: Cyclin-dependent kinase 5 (Homo sapiens, UniProt Q00535); assay: Inhibition of CDK5 (unknown origin)
# [3] = molecular target: Glycogen synthase kinase-3 beta (Homo sapiens, UniProt P49841); assay: Inhibition of GSK3beta (unknown origin)
# [4] = molecular target: RAF proto-oncogene serine/threonine-protein kinase (Homo sapiens, UniProt P04049); assay: Inhibition of RAF1 (unknown origin)
# Chain of RAF proto-oncogene serine/threonine-protein kinase (P04049 whole entry): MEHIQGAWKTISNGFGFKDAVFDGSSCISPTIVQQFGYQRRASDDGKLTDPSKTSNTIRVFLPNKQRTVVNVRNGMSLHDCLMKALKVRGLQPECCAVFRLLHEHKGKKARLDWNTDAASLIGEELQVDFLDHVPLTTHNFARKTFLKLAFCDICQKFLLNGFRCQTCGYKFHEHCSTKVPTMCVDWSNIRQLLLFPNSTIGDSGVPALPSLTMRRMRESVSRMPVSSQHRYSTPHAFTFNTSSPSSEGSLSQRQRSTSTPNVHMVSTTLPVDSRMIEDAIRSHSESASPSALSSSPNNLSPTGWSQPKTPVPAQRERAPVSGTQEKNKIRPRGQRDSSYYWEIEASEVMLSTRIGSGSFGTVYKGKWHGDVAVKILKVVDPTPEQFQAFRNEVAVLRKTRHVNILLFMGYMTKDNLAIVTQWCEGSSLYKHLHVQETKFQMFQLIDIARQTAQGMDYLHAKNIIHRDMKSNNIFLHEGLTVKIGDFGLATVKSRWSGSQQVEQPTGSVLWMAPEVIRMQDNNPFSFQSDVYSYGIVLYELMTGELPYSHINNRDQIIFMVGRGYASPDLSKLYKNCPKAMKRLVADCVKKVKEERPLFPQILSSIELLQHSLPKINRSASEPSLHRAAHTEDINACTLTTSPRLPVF
# Chain of Glycogen synthase kinase-3 beta (P49841 whole entry): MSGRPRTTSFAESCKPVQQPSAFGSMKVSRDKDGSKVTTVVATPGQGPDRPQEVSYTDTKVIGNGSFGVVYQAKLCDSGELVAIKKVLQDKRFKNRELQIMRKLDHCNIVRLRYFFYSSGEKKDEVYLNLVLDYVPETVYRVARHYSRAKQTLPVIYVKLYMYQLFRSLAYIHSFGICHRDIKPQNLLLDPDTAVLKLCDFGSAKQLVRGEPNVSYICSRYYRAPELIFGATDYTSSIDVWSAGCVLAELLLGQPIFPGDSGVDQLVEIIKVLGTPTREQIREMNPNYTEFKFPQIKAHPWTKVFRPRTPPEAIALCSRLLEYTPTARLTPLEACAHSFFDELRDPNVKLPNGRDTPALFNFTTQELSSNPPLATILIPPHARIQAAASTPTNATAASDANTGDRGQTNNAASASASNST
# Chain of Cyclin-dependent kinase 5 (Q00535 whole entry): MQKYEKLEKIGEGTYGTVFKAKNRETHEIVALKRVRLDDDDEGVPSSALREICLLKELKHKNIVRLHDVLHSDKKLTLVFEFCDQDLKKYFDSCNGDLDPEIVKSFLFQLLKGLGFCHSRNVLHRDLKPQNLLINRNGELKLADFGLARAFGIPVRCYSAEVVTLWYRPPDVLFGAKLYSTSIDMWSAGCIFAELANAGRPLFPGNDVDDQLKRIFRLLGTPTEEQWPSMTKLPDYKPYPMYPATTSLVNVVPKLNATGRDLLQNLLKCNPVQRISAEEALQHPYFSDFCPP
Compound,IC50 [1] [µM],IC50 [2] [µM],IC50 [3] [µM],IC50 [4] [µM]
COc1ccc2[nH]c(-c3ccccc3)c(-c3ccncc3)c2n1,1.3,> 10,> 10,3.2
COc1ccc2[nH]c(-c3cccc(O)c3)c(-c3cccnc3)c2n1,> 10,> 10,> 10,16.5
COc1ccc2[nH]c(-c3ccccc3O)c(-c3ccncc3)c2n1,0.23,> 10,> 10,
COc1ccc2[nH]c(-c3cc(O)cc(O)c3)c(-c3ccncc3)c2n1,> 10,> 10,> 10,> 50
COc1ccc2[nH]c(-c3ccc(O)cc3)c(-c3ccncc3)c2n1,0.47,> 10,> 10,1.3
COc1ccc2[nH]c(-c3cccc(O)c3)c(-c3ccccn3)c2n1,> 10,> 10,> 10,9.2

# Further lines, results first:
IC50 [1] [µM],IC50 [2] [µM],IC50 [3] [µM],IC50 [4] [µM],Compound
0.84,> 10,> 10,> 50,COc1ccc2[nH]c(-c3ccc4cc(O)ccc4c3)c(-c3ccncc3)c2n1
1.8,> 10,> 10,4.3,COc1ccc2[nH]c(-c3cccc(F)c3)c(-c3ccncc3)c2n1
0.7,> 10,> 10,0.286,COc1ccc2[nH]c(-c3cccc(O)c3)c(-c3ccncc3)c2n1
